Source: the supplement of paper PMC10627819

Columns and labels:
B. subtilis 168 [1] = experiment: fitness (endpoint OD595 vs no drug) (fraction); higher = more growth
Outline: (§1)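 Background-subtracted growth curves were the basis for fitness, taken as the optical density at entry into stationary phase over the robust mean of no-drug control wells. A cap of 1 was applied. The curves came from OD595 readings every 30 min for 14 h at 37 °C, in 384-well plates seeded at OD595 0.01 with 30 µl, or 55 µl for S. pneumoniae.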

S. pneumoniae D39V [2] = experiment: as above
Outline: as §1

S. aureus Newman [3] = experiment: as above
Outline: as §1

B. subtilis 168 [4] = experiment: Bliss interaction score (quartile over a dose matrix) (fitness difference); higher = more antagonism (negative = synergy)
Outline: (§2)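 The Bliss score was calculated by subtracting the expected fitness, the product of single-drug values, from the observed fitness. OD595 at entry into stationary phase, over the plate's robust no-drug mean and capped at 1, served as the fitness readout. Single-drug values were inferred from combination data, and scores are summarised by quartiles across technical, biological and donor/recipient replicates.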

S. pneumoniae D39V [5] = experiment: as above
Outline: as §2

S. aureus Newman [6] = experiment: as above
Outline: as §2

S. aureus DSM 20231 = experiment: as above
Outline: as §2
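Throughout, for Bliss interaction score (quartile over a dose matrix): first quartile when negative (synergy) and third quartile when positive (antagonism).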

CC1=C(C(=O)O)N2C(=O)[C@@H](NC(=O)[C@H](N)c3ccccc3)[C@H]2SC1 [Cephalexin] + CN[C@@H]1[C@H](O[C@H]2[C@H](O[C@H]3[C@H](O)[C@@H](O)[C@H](N=C(N)N)[C@@H](O)[C@@H]3N=C(N)N)O[C@@H](C)[C@]2(O)C=O)O[C@@H](CO)[C@H](O)[C@H]1O [Streptomycin]
fitness
Conditions	first compound 0.125 µg/mL	first compound 0.25 µg/mL	first compound 0.5 µg/mL	first compound 1 µg/mL	first compound 2 µg/mL	first compound 4 µg/mL
B. subtilis 168 [1], partner 2 µg/mL	0.94	0.923	0.932	–	–	–
B. subtilis 168 [1], partner 8 µg/mL	0.031	0.0416	0.0533	–	–	–
S. aureus Newman [3], partner 1 µg/mL	–	0.944	0.967	0.987	–	–
S. aureus Newman [3], partner 2 µg/mL	–	0.976	≥ 1	≥ 1	–	–
S. pneumoniae D39V [2], partner 4 µg/mL	–	–	–	0.454	0.0189	0.0459
S. pneumoniae D39V [2], partner 8 µg/mL	–	–	–	0.408	0.0381	0.0337

fitness, S. pneumoniae D39V [2], one replicate
Conditions	first compound 0.125 µg/mL	first compound 0.25 µg/mL	first compound 0.5 µg/mL	first compound 1 µg/mL	first compound 2 µg/mL	first compound 4 µg/mL
partner 2 µg/mL	0.86	0.913	0.953	0.386	0.0034	0.0206
partner 4 µg/mL	0.901	0.91	0.911	–	–	–
partner 8 µg/mL	0.961	0.898	0.896	–	–	–
partner 16 µg/mL	–	–	–	0.198	0.0581	0.0194

Conditions	Bliss interaction score
B. subtilis 168 [4]	0.0604
S. aureus DSM 20231	-0.157
S. aureus Newman [6]	0.0561
S. pneumoniae D39V [5]	-0.153

CC1=C(C(=O)O)N2C(=O)[C@@H](NC(=O)[C@H](N)c3ccccc3)[C@H]2SC1 [Cephalexin] + COc1c(N2C[C@@H]3CCCN[C@@H]3C2)c(F)cc2c(=O)c(C(=O)O)cn(C3CC3)c12 [Moxifloxacin]
Conditions	fitness
B. subtilis 168 [1], first compound 0.125 µg/mL, partner 2 µg/mL	0.0423
B. subtilis 168 [1], first compound 0.125 µg/mL, partner 4 µg/mL	0.0453
B. subtilis 168 [1], first compound 0.125 µg/mL, partner 8 µg/mL	0.0194
B. subtilis 168 [1], first compound 0.25 µg/mL, partner 0.0312 µg/mL	0.0487
B. subtilis 168 [1], first compound 0.25 µg/mL, partner 0.0625 µg/mL	0.0549
B. subtilis 168 [1], first compound 0.25 µg/mL, partner 0.125 µg/mL	0.0364
B. subtilis 168 [1], first compound 0.25 µg/mL, partner 2 µg/mL	0.0473
B. subtilis 168 [1], first compound 0.25 µg/mL, partner 4 µg/mL	0.0392
B. subtilis 168 [1], first compound 0.25 µg/mL, partner 8 µg/mL	0.027
B. subtilis 168 [1], first compound 0.5 µg/mL, partner 0.0312 µg/mL	0.0585
B. subtilis 168 [1], first compound 0.5 µg/mL, partner 0.0625 µg/mL	0.0464
B. subtilis 168 [1], first compound 0.5 µg/mL, partner 0.125 µg/mL	0.0607
B. subtilis 168 [1], first compound 0.5 µg/mL, partner 2 µg/mL	0.0441
B. subtilis 168 [1], first compound 0.5 µg/mL, partner 4 µg/mL	0.0483
B. subtilis 168 [1], first compound 0.5 µg/mL, partner 8 µg/mL	0.0385
B. subtilis 168 [1], first compound 1 µg/mL, partner 0.0312 µg/mL	0.0562
B. subtilis 168 [1], first compound 1 µg/mL, partner 0.0625 µg/mL	0.0588
B. subtilis 168 [1], first compound 1 µg/mL, partner 0.125 µg/mL	0.0618
S. aureus Newman [3], first compound 0.25 µg/mL, partner 0.0075 µg/mL	0.788
S. aureus Newman [3], first compound 0.5 µg/mL, partner 0.0075 µg/mL	0.812
S. aureus Newman [3], first compound 0.5 µg/mL, partner 0.015 µg/mL	0.691
S. aureus Newman [3], first compound 1 µg/mL, partner 0.0075 µg/mL	0.807
S. pneumoniae D39V [2], first compound 4 µg/mL, partner 0.005 µg/mL	0.0502
S. pneumoniae D39V [2], first compound 4 µg/mL, partner 0.01 µg/mL	0.059
S. pneumoniae D39V [2], first compound 4 µg/mL, partner 0.02 µg/mL	0.0505

fitness, S. pneumoniae D39V [2], one replicate
Conditions	first compound 0.125 µg/mL	first compound 0.25 µg/mL	first compound 0.5 µg/mL
partner 0.0037 µg/mL	0.856	0.855	0.836
partner 0.0075 µg/mL	0.948	0.843	0.819
partner 0.015 µg/mL	0.839	0.813	0.808

Conditions	Bliss interaction score
B. subtilis 168 [4]	0.0149
S. aureus DSM 20231	-0.0585
S. aureus Newman [6]	0.07
S. pneumoniae D39V [5]	-0.0683

C[n+]1ccc(-c2cc[n+](C)cc2)cc1 [Paraquat] + CN[C@@H]1[C@H](O[C@H]2[C@H](O[C@H]3[C@H](O)[C@@H](O)[C@H](N=C(N)N)[C@@H](O)[C@@H]3N=C(N)N)O[C@@H](C)[C@]2(O)C=O)O[C@@H](CO)[C@H](O)[C@H]1O [Streptomycin]
fitness
Conditions	partner 1 µg/mL	partner 2 µg/mL	partner 4 µg/mL	partner 8 µg/mL
B. subtilis 168 [1], first compound 1.25 µg/mL	–	0.886	–	0.0237
B. subtilis 168 [1], first compound 2.5 µg/mL	–	0.924	–	0.0505
B. subtilis 168 [1], first compound 5 µg/mL	–	0.777	0.26	0.0406
S. aureus Newman [3], first compound 1.25 µg/mL	0.99	0.882	–	–
S. aureus Newman [3], first compound 2.5 µg/mL	0.907	0.912	–	–
S. aureus Newman [3], first compound 5 µg/mL	0.908	0.859	–	–
S. pneumoniae D39V [2], first compound 1.5 µg/mL	–	0.953	0.983	0.89
S. pneumoniae D39V [2], first compound 3 µg/mL	–	0.967	0.964	0.884
S. pneumoniae D39V [2], first compound 6 µg/mL	–	0.946	0.916	0.866

S. pneumoniae D39V [2], partner 16 µg/mL, one replicate
Conditions	fitness
first compound 1.5 µg/mL	0.865
first compound 3 µg/mL	0.857
first compound 6 µg/mL	0.722

Conditions	Bliss interaction score
B. subtilis 168 [4]	-0.119
S. aureus DSM 20231	0.118
S. aureus Newman [6]	0.0567
S. pneumoniae D39V [5]	-0.0799

CC1=C(C(=O)O)N2C(=O)[C@@H](NC(=O)[C@H](N)c3ccccc3)[C@H]2SC1 [Cephalexin] + CN(C)c1cc(NC(=O)CNC(C)(C)C)c(O)c2c1C[C@H]1C[C@H]3[C@H](N(C)C)C(O)=C(C(N)=O)C(=O)[C@@]3(O)C(O)=C1C2=O [Tigecycline]
fitness
Conditions	first compound 0.125 µg/mL	first compound 0.25 µg/mL	first compound 0.5 µg/mL	first compound 1 µg/mL	first compound 2 µg/mL	first compound 4 µg/mL
B. subtilis 168 [1], partner 0.039 µg/mL	0.958	0.946	0.942	–	–	–
B. subtilis 168 [1], partner 0.078 µg/mL	0.903	0.902	0.942	–	–	–
B. subtilis 168 [1], partner 0.156 µg/mL	0.951	0.892	0.943	–	–	–
S. aureus Newman [3], partner 0.039 µg/mL	–	0.974	0.992	≥ 1	–	–
S. aureus Newman [3], partner 0.078 µg/mL	–	0.998	≥ 1	≥ 1	–	–
S. aureus Newman [3], partner 0.156 µg/mL	–	0.97	0.994	≥ 1	–	–
S. pneumoniae D39V [2], partner 0.65 µg/mL	–	–	–	0.514	0.0102	0.0229
S. pneumoniae D39V [2], partner 1.3 µg/mL	–	–	–	0.616	0.0542	0.0691
S. pneumoniae D39V [2], partner 2.6 µg/mL	–	–	–	0.616	0.0292	0.0457

fitness, one replicate
Conditions	first compound 0.125 µg/mL	first compound 0.25 µg/mL	first compound 0.5 µg/mL	first compound 1 µg/mL
B. subtilis 168 [1], partner 0.125 µg/mL	–	0.94	≥ 1	0.995
B. subtilis 168 [1], partner 0.25 µg/mL	–	0.952	0.976	0.975
B. subtilis 168 [1], partner 0.5 µg/mL	–	0.958	≥ 1	0.916
S. pneumoniae D39V [2], partner 0.65 µg/mL	0.933	0.959	≥ 1	–
S. pneumoniae D39V [2], partner 1.3 µg/mL	0.964	0.974	≥ 1	–
S. pneumoniae D39V [2], partner 2.6 µg/mL	0.888	0.915	0.978	–

Conditions	Bliss interaction score
B. subtilis 168 [4]	-0.0606
S. aureus DSM 20231	0.0805
S. aureus Newman [6]	0.0193
S. pneumoniae D39V [5]	-0.0787

CNC(C)C1CCC(N)C(OC2C(N)CC(N)C(OC3OCC(C)(O)C(NC)C3O)C2O)O1 (stereo unspecified) [Gentamicin] + CN[C@@H]1[C@H](O[C@H]2[C@H](O[C@H]3[C@H](O)[C@@H](O)[C@H](N=C(N)N)[C@@H](O)[C@@H]3N=C(N)N)O[C@@H](C)[C@]2(O)C=O)O[C@@H](CO)[C@H](O)[C@H]1O [Streptomycin]
fitness, main component drawn
Conditions	partner 1 µg/mL	partner 2 µg/mL	partner 4 µg/mL	partner 8 µg/mL
B. subtilis 168 [1], first compound 0.125 µg/mL	–	–	–	0.0351
B. subtilis 168 [1], first compound 0.25 µg/mL	–	0.0785	0.05	0.0399
S. aureus Newman [3], first compound 0.375 µg/mL	≥ 1	0.929	–	–
S. aureus Newman [3], first compound 0.5 µg/mL	0.957	0.953	0.978	–
S. aureus Newman [3], first compound 0.75 µg/mL	0.99	0.848	–	–
S. aureus Newman [3], first compound 1 µg/mL	0.991	≥ 1	≥ 1	–
S. aureus Newman [3], first compound 2 µg/mL	0.996	≥ 1	0.946	–
S. pneumoniae D39V [2], first compound 2 µg/mL	–	0.918	0.922	0.899
S. pneumoniae D39V [2], first compound 4 µg/mL	–	0.895	0.942	0.848
S. pneumoniae D39V [2], first compound 8 µg/mL	–	0.912	0.912	0.836

S. pneumoniae D39V [2], partner 16 µg/mL, one replicate, main component drawn
Conditions	fitness
first compound 2 µg/mL	0.779
first compound 4 µg/mL	0.736
first compound 8 µg/mL	0.628

main component drawn
Conditions	Bliss interaction score
B. subtilis 168 [4]	-0.17
S. aureus DSM 20231	-0.404
S. aureus Newman [6]	0.0694
S. pneumoniae D39V [5]	0.0468
